Data on one molecule can be found in US20260133203A1, “DETECTION OF FUMARATE-DERIVED MODIFICATION IN A TEST SAMPLE” (UNIVERSITY OF SOUTH CAROLINA, priority 2017, published 2026).

Counter-ions that a name gives are not always drawn.

For experiment [1], the system named is heme oxygenase 1 (HO-1). Put plainly: Western blot of HO-1 expression after DMF treatment. The experiment is classed as cell-based. The protocol:
N1E-115 cells (subclone N1E-115-1 neuroblastoma cells) were obtained from Sigma (08062511, St. Louis, MO). The cells were grown and expanded in non-differentiation medium (NDM): 90% DMEM (Gibco™, Grand Island, NY) with 25 mM glucose, no pyruvate, 25 mM HEPES, 4 mM glutamine and 10% fetal bovine serum (FBS, Atlanta Biologicals, Atlanta, GA). At 80% confluence, the cells were differentiated into neurons in the presence of 2% FBS and 1.25% dimethyl sulfoxide in DMEM for 5 days. In addition to the assessment of the neuronal phenotype by light microscopy, the detection of synaptophysin protein levels was used to confirm successful differentiation. During the final 6 or 24 hours of differentiation, the cells were treated with 10-100 µM DMF and harvested as described above for primary neurons, with the addition of phosphatase inhibitors to the DPBS washes and the RIPA buffer used for scraping to prevent dephosphorylation of CRMP-2. […] To ensure that the succinated proteins detected were solely of neuronal origin, N1E-115 neuroblastoma cells were differentiated to a neuronal phenotype (confirmed by increased synaptophysin content) and treated with DMF for 24 hours. […]
In general terms: A western blot detects proteins with antibodies after separation by electrophoresis.

Experiment [2] deals with primary rat astrocytes. The experiment is described as follows: LC-MS/MS identification of succinated proteins in primary rat astrocytes. It is filed as cell-based. The settings on record: 24 hours treatment with up to 100 μM DMF. The protocol:
Primary astrocytes were isolated and cultured from neonatal P1-P2 Sprague-Dawley rats. Animals were decapitated following which cortices, brainstem, and hippocampi were aseptically dissected in petri dishes filled with ice-cold Hanks' Balanced Salt Solution (Corning® HBSS; Sigma, St. Louis, MO), HEPES (10 mM; Sigma), and gentamicin sulfate (5 μg/mL; Life Technologies, Carlsbad, CA). The dissected tissue was cut into pieces and dissociated by trypsin treatment (10 μl/mL; Life Technologies, Carlsbad, CA), followed by trituration with sterile glass pipettes. Cells were plated in 24-well plates pre-coated with poly-l-lysine (50 μg/mL; Sigma). Cultures were maintained in DMEM/F12 (Life Technologies) medium supplemented with 10% fetal bovine serum (FBS) and stored in an incubator at 37° C. ([…]). […] After gel extraction, the peptides were re-suspended in 1% acetic acid and analyzed on a DionexTM […] system (Thermo ScientificTM, Rockford, IL) coupled to an Orbitrap Velos ProTM mass spectrometer (Thermo ScientificTM, Rockford, IL). […] The data-dependent acquisition (DDA) data were analyzed using Proteome DiscovererTM 1.4 software with SEQUEST search engine against the uniprot_ref_mouse database (2014-10-03 version, 52,474 proteins) or uniprot_ref_rat database (2011-5-11 version, 39765 proteins) with Xcorr>1 validation (+2) and an allowance for 2 missed cleavages. […]

Consider `COC(=O)/C=C/C(=O)OC` [DMF, dimethyl fumarate], for which the HO-1 expression result in experiment [1] was “significantly induced HO-1 expression”. The “number of succinated protein subunits detected” value in experiment [2] is on record as 11.
